Measurements published in article PMC8092218, “NirA Is an Alternative Nitrite Reductase from Pseudomonas aeruginosa with Potential as an Antivirulence Target” (mBio, 2021).

Biological target: T1, PA4130 (NirA) (Pseudomonas aeruginosa, UniProt Q9HWQ1)
T1 construct: full ORF, N-terminal hexahistidine tag, plasmid pSK4130-N; coexpressed with E. coli cysG in E. coli NiCo21; IMAC and chitin column; monomer; siroheme and 4Fe-4S
Assay: reduced methyl viologen oxidation assay, spectrophotometric; Griess diazotization
Format: biochemical
Conditions: electron acceptor; reduced methyl viologen or dithionite-reduced spinach ferredoxin as donor; anaerobic

T1 sequence (Q9HWQ1 entry or part of it): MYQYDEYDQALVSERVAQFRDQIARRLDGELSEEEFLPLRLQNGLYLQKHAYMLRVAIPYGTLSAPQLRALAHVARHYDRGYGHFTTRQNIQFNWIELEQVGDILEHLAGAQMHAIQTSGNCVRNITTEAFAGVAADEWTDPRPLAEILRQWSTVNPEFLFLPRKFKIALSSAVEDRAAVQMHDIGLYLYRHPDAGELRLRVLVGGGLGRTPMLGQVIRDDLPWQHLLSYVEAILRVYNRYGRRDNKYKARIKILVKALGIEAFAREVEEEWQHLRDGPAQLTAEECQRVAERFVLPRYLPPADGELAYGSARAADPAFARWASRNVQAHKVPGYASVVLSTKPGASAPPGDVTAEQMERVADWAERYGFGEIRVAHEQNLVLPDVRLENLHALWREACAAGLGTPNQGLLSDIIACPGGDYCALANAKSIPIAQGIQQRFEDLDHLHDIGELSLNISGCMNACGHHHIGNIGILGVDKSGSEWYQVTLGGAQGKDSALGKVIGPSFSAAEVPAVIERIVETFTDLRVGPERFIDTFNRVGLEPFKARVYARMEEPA

O=NO [nitrite]
reduced methyl viologen oxidation assay, spectrophotometric; Griess diazotizatio: PA4130 was able to oxidize MV only in the presence of nitrite
